Measurements published in USRE48711E1, “Apoptosis signal-regulating kinase inhibitors” (Gilead Sciences, Inc., priority 2009, dated 2021).

Molecular target: ASK1 (Apoptosis Signal-Regulating Kinase 1) (Homo sapiens (Human), UniProt Q99683)
Assay: ASK1 (Apoptosis Signal-Regulating Kinase 1) TR-FRET Kinase Assay (Biochemical IC50)
Conditions: TR-FRET, biotin-MBP substrate, 20 min pre-incubation, ATP added as 300 μM solution

Chain of ASK1 (Apoptosis Signal-Regulating Kinase 1) (Q99683 649-946): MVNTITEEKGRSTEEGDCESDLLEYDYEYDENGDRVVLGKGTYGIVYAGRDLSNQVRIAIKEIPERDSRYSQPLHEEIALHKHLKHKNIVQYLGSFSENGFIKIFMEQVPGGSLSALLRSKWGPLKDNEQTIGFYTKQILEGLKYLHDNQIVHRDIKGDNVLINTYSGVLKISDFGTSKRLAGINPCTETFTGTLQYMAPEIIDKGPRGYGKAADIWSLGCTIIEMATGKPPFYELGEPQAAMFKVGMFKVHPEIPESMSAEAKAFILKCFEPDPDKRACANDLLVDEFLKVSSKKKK

SMILES | IC50
O=C(Nc1cccc(-c2cncn2C2CC2)c1)c1cc(-c2ccc(C3CC3)nc2)ccn1 [Example 107, 6-cyclopropyl-N-(3-(1-cyclopropyl-1H-imidazol-5-yl)phenyl)-3,4′-bipyridine-2′-carboxamide] | 31 nM
O=C(Nc1cccc(-c2nncn2C2CC2)c1)c1cc(-c2cnc3ccn(CC(F)(F)F)c3c2)ccn1 [Example 244, N-(3-(4-cyclopropyl-4H-1,2,4-triazol-3-yl)phenyl)-4-(1-(2,2,2-trifluoroethyl)-1H-pyrrolo[3,2-b]pyridin-6-yl)picolinamide] | 25 nM
COc1ccc(-n2cnc(C3CC3)c2)cc1C(=O)Nc1cccc(-c2nncn2C2CC2)c1 [Example 272, 5-(4-cyclopropyl-1H-imidazol-1-yl)-N-(3-(4-cyclopropyl-4H-1,2,4-triazol-3-yl)phenyl)-2-methoxybenzamide] | 11 nM
CS(=O)(=O)c1ccc(-c2ccnc(C(=O)Nc3cccc(-c4nncn4C4CC4)n3)c2)cc1 [Example 101, N-(6-(4-cyclopropyl-4H-1,2,4-triazol-3-yl)pyridin-2-yl)-4-(4-(methylsulfonyl)phenyl)picolinamide] | 7 nM
CC(C)c1cn(-c2ccnc(C(=O)Nc3cccc(-c4nncn4C4CC4)c3)c2)cn1 [Example 163, N-(3-(4-cyclopropyl-4H-1,2,4-triazol-3-yl)phenyl)-4-(4-isopropyl-1H-imidazol-1-yl)picolinamide] | 4 nM
Cc1cnc(C(=O)Nc2cccc(-c3nncn3C3CC3)c2)cc1-c1ccc(C2CC2)nc1 [Example 250, 6-cyclopropyl-N-(3-(4-cyclopropyl-4H-1,2,4-triazol-3-yl)phenyl)-5′-methyl-3,4′-bipyridine-2′-carboxamide] | 8 nM
CC(C)n1cnnc1-c1cccc(NC(=O)c2cc(-c3ccc(C4CC4)nc3)ccn2)c1 [Example 219, 6-cyclopropyl-N-(3-(4-isopropyl-4H-1,2,4-triazol-3-yl)phenyl)-3,4′-bipyridine-2′-carboxamide] | 16 nM
O=C(Nc1cccc(-c2nncn2C2CC2)c1)c1cc(-c2cnc3c(c2)CN(CC(F)(F)F)CC3)ccn1 [Example 161, N-(3-(4-cyclopropyl-4H-1,2,4-triazol-3-yl)phenyl)-4-(6-(2,2,2-trifluoroethyl)-5,6,7,8-tetrahydro-1,6-naphthyridin-3-yl)picolinamide] | 9 nM
O=C(Nc1cccc(-c2nncn2C2CC2)c1)c1cc(-c2cnc(C3CC3)c(Cl)c2)ccn1 [Example 135, 5-chloro-6-cyclopropyl-N-(3-(4-cyclopropyl-4H-1,2,4-triazol-3-yl)phenyl)-3,4′-bipyridine-2′-carboxamide] | 131 nM
O=C(Nc1cccc(-c2nncn2C2CC2)c1)c1cc(-c2cnc3cccnc3c2)ccn1 [Example 190, N-(3-(4-cyclopropyl-4H-1,2,4-triazol-3-yl)phenyl)-4-(1,5-naphthyridin-3-yl)picolinamide] | 13 nM
Cc1c(C(=O)O)ncn1-c1cccc(C(=O)Nc2cccc(-c3nncn3C3CC3)n2)c1 [Example 213, 1-(3-(6-(4-cyclopropyl-4H-1,2,4-triazol-3-yl)pyridin-2-ylcarbamoyl)phenyl)-5-methyl-1H-imidazole-4-carboxylic acid] | 11 nM
O=C(Nc1cccc(-c2nncn2CC2CC2)c1)c1cc(-n2cnc(C3CC3)c2)ccn1 [Example 185, 4-(4-cyclopropyl-1H-imidazol-1-yl)-N-(3-(4-(cyclopropylmethyl)-4H-1,2,4-triazol-3-yl)phenyl)picolinamde] | 34 nM
O=C(Nc1cccc(-c2nncn2C2CC2)n1)c1cccc(-n2cnc(C(O)C(F)(F)F)c2)c1 (stereo not shown) [Example 208, N-(6-(4-cyclopropyl-4H-1,2,4-triazol-3-yl)pyridin-2-yl)-3-(4-(2,2,2-trifluoro-1-hydroxyethyl)-1H-imidazol-1-yl)benzamide] | 5 nM
Cn1cnnc1-c1cccc(NC(=O)c2cc(-c3ccccc3)ccn2)c1 [Example 4, N-(3-(4-methyl-4H-1,2,4-triazol-3-yl)phenyl)-4-phenylpicolinamide] | 701 nM
O=C(Nc1cccc(-c2nncn2C2CC2)c1)c1cc(-c2cnc(C3CC3)nc2)ccn1 [Example 123, N-(3-(4-cyclopropyl-4H-1,2,4-triazol-3-yl)phenyl)-4-(2-cyclopropylpyrimidin-5-yl)picolinamide] | 10 nM
COCCNc1ccc(-c2ccnc(C(=O)Nc3cccc(-c4nncn4C4CC4)c3)c2)cn1 [Example 136, N-(3-(4-cyclopropyl-4H-1,2,4-triazol-3-yl)phenyl)-6-(2-methoxyethylamino)-3,4′-bipyridine-2′-carboxamide] | 7 nM
